ChEMBL document CHEMBL3217624, “Probing androgen receptor co-factor selectivity profiles: a chemical tool to determine cross-talk between androgen receptor and -catenin in vivo” (Medchemcomm, 2013)
pEC50, pIC50: −log10 of the molar value. Active and inactive are the calls of the source. The calls are words filed in the database; no cut-off is given here.

What was measured:
Rattus norvegicus [1] = test: Androgenic activity in ORX rat model assessed as reduction in plasma luteinizing hormone level at 10 mg/kg, sc qd after 11 days relative to sham control; format: functional, organism-based; set-up: dose 10 mg/kg
Rattus norvegicus [2] = test: Androgenic activity in ORX rat model assessed as reduction in plasma luteinizing hormone level at 30 mg/kg, sc qd after 11 days relative to sham control; format: functional, organism-based; set-up: dose 30 mg/kg
Rattus norvegicus [3] = test: Androgenic activity in ORX rat model assessed as effect on seminal vesicle weight at 3 to 30 mg/kg, sc qd after 11 days relative to sham control; format: functional, organism-based
Androgen receptor [4] = target: T1, Androgen receptor (Homo sapiens, UniProt P10275); test: Agonist activity at human AR expressed in African green monkey CV1 cells after 17 hrs by ARE-driven luciferase reporter gene assay; format: cell-based, CV-1
T1 sequence (P10275 whole entry): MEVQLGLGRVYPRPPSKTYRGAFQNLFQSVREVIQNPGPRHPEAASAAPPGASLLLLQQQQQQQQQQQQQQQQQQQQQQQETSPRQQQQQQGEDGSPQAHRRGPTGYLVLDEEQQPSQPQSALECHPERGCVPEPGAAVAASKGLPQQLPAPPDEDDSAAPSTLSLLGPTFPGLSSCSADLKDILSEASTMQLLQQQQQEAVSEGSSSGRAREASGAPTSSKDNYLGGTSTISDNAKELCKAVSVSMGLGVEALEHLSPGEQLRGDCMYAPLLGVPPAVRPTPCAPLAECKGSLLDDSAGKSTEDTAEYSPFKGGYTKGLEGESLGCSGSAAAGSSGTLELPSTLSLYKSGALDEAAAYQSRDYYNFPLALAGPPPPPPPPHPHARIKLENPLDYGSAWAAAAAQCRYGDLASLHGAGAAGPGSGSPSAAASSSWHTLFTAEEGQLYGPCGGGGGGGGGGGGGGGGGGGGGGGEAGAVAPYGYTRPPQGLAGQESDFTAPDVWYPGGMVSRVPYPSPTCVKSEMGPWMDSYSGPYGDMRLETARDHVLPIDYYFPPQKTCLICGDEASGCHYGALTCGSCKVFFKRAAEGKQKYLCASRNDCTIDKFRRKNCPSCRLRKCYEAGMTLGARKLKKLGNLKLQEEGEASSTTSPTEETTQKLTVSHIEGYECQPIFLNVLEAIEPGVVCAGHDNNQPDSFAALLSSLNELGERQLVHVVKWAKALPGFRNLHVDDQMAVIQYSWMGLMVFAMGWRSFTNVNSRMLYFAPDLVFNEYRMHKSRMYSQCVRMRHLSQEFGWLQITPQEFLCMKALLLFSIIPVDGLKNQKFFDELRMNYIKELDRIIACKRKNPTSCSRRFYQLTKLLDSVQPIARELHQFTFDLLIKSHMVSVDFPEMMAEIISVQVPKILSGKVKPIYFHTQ

Rattus norvegicus [5] = test: Androgenic activity in ORX rat model assessed as restoration of hepatic hydroxyacid oxidase2 expression at 10 to 30 mg/kg, sc qd after 11 days by RT-PCR analysis relative to sham control; format: functional; settings: dose mg/kg 10-30; route subcutaneous
[6] = target: T2, Androgen receptor (Homo sapiens) (UniProt P10275); test: Agonist activity at human AR expressed in African green monkey CV1 cells assessed as supression of beta-catenin at 1000 nM after 17 hrs by Wnt 12xTcf-luciferase reporter gene assay relative to control; format: cell-based; settings: CV-1
T2 sequence (whole entry): T1 sequence (P10275 whole entry)

Rattus norvegicus [7] = test: Androgenic activity in sc dosed ORX rat model assessed as increase in hepatic carnitine palmitoyltransferase1 expression after 11 days by RT-PCR analysis relative to sham control; format: functional
Rattus norvegicus [8] = test: Androgenic activity in ORX rat model assessed as reduction in plasma luteinizing hormone level at 3 mg/kg, sc qd after 11 days relative to sham control; format: functional, organism-based; set-up: dose 3 mg/kg
Androgen receptor [9] = target: T1, Androgen receptor; test: Displacement of [3H]mibolerone from human AR expressed in COS cells after 3.5 hrs by liquid scintillation counting analysis; format: cell-based
Rattus norvegicus [10] = test: Androgenic activity in ORX rat model assessed as increase in hepatic carnitine palmitoyltransferase1 expression at 1 mg/kg, sc qd after 11 days by RT-PCR analysis relative to sham control; format: functional; settings: route subcutaneous
Rattus norvegicus [11] = test: Androgenic activity in ORX rat model assessed as increase in levator ani muscle weight at 1 mg/kg, sc qd after 11 days relative to sham control; format: functional, organism-based; set-up: dose 1 mg/kg
Rattus norvegicus [12] = test: Androgenic activity in ORX rat model assessed as increase in seminal vesicle weight at 1 mg/kg, sc qd after 11 days relative to sham control; format: functional, organism-based; set-up: dose 1 mg/kg
Rattus norvegicus [13] = test: Androgenic activity in ORX rat model assessed as restoration of hepatic hydroxyacid oxidase2 expression at 1 mg/kg, sc qd after 11 days by RT-PCR analysis relative to sham control; format: functional, organism-based; set-up: dose 1 mg/kg
Rattus norvegicus [14] = test: Androgenic activity in ORX rat model assessed as increase in prostate weight at 1 mg/kg, sc qd after 11 days relative to sham control; format: functional, organism-based; set-up: dose 1 mg/kg; settings: Prostate gland
Rattus norvegicus [15] = test: Androgenic activity in ORX rat model assessed as reduction in plasma luteinizing hormone level at 1 mg/kg, sc qd after 11 days relative to sham control; format: functional, organism-based; set-up: dose 1 mg/kg

Compound | Activity (Rattus norvegicus [1]) | Activity (Rattus norvegicus [2]) | Activity (Rattus norvegicus [3]) | pEC50 (Androgen receptor [4]) | fold change (FC) (Rattus norvegicus [5]) | Activity [6] [%] | Activity (Rattus norvegicus [7]) | fold change (FC) (Rattus norvegicus [7]) | Activity (Rattus norvegicus [8]) | pIC50 (Androgen receptor [9]) | fold change (FC) (Rattus norvegicus [10]) | Activity (Rattus norvegicus [11]) | Activity (Rattus norvegicus [12]) | Activity (Rattus norvegicus [13]) | Activity (Rattus norvegicus [14]) | Activity (Rattus norvegicus [15])
CN1C(=O)C(F)=C[C@]2(C)[C@H]3CC[C@]4(C)[C@@H](C(=O)NCc5nc6cccnc6[nH]5)CC[C@H]4[C@@H]3CC[C@@H]12 [MK-0773] | Active | inactive | inactive | 6.84 | 2.5 | 32 | Dose-dependent effect | 2 | inactive | 6.71 |  |  |  |  |  | 
CCC(=O)O[C@H]1CC[C@H]2[C@@H]3CCC4=CC(=O)CC[C@]4(C)[C@H]3CC[C@]12C [TESTOSTERONE PROPIONATE] |  |  |  |  |  |  |  |  |  | 7.74 | 2 | Active | Active | Active | Active | Active
